In publication PMC5394417, “Investigating the molecular mechanism of positive and negative allosteric modulators in the calcium-sensing receptor dimer” (Scientific Reports, 2017):

Biological target: T1, HA-S147A CaSR mutant (Rattus norvegicus, UniProt P48442, S147A)
T1 construct: mGluR5 signal peptide (N); expressed in transfected cells; host or cells: HEK293T
T1 sequence (P48442 20-1079 S147A): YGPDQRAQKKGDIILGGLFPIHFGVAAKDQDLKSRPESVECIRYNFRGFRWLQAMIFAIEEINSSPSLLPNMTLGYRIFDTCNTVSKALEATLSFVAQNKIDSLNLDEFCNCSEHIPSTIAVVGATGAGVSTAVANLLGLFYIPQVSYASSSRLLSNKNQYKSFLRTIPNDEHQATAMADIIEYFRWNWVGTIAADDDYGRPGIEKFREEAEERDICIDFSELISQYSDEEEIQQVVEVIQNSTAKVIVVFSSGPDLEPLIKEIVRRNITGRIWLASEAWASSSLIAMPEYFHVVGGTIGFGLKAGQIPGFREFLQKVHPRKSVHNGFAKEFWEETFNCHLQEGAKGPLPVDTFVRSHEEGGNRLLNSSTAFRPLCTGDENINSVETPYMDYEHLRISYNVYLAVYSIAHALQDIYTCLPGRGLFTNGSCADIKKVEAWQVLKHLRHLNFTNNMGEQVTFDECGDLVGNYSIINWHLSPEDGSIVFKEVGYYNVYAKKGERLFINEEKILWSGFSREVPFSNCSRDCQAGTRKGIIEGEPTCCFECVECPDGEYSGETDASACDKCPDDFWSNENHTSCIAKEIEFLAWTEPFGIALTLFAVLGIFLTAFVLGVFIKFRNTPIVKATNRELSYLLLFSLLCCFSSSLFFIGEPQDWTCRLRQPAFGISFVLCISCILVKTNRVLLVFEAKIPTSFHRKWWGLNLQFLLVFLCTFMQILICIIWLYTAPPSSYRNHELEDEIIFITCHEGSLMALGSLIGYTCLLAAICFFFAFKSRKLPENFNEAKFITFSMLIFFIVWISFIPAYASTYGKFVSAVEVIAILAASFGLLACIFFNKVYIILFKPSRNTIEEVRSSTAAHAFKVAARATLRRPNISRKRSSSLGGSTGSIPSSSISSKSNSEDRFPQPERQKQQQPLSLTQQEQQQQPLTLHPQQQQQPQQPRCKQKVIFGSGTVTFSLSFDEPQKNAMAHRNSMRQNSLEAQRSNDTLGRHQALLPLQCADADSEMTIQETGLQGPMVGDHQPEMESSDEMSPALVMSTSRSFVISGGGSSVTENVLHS
Assay: IP-One assay, HEK293T transiently transfected
Format: cell-based

## [Ca+2] [Ca^2+]
Ca^2+ alone
  EC50: 9.07 mM
  Hill coefficient ± S.E.M.: 3.50 ± 0.26
  pEC50 ± S.E.M.: 2.04 ± 0.01
Normalized to maximum response of WT CaSR
  Max ± S.E.M.: 150 ± 17%
